Laboratory results as given in patent US9642925B2, “Magnetic nanoparticle formulations, methods for making such formulations, and methods for their use” (Sanford Research/USD, priority 2010, dated 2017).

Key:
[1] = system: A2780CP ovarian cancer cells; assay: In vitro cytotoxicity (MTT assay), A2780CP; type: cell-based; conditions: A2780C/P, 48 h, 2 days, read-out: IC50 (50% cell growth inhibitory concentration)
Description: (§1) In vitro cytotoxicity was assessed using a standard 3-(4,5-dimethylthiazol-2-yl)-2,5-diphenyltetrazolium bromide (MTT) based colorimetric assay (CellTiter 96 AQeous, Promega, Madison, Wis., USA). Ovarian (A2780CP), breast (MDA-MB-231), and prostate (PC3) cancer cells were used for this experiment. Cells (5000 cells/well in 100 μl media) were cultured in RPMI-1640 or DMEM medium containing 10% FBS and 1% penicillin-streptomycin in 96-well plates and allowed to attach overnight. The media was replaced with fresh media containing different concentrations (2.5-40 μM) of CUR and CUR containing MNPs (F127250-CUR). Equivalent amounts of DMSO or F127250 MNPs without drug in PBS were used as control. These plates were incubated at 37° C. for 2 days. After day 2, the media was replaced with 100 μl fresh media and the MTT reagent (25 μl/well) was added to each well and plates were incubated for 3 hrs at 37° C. in an incubator. The color intensity was measured at 492 nm using a microplate reader (BioMate 3 UV-Vis Spectrophotometer, Thermo Electron Corporation, Hudson, N.H., USA). The anti-proliferation potential of CUR and F127250-CUR treatments was calculated as a percentage of cell growth with respect to the DMSO and F127250 formulation in PBS controls. Standard deviations were obtained from 6 replicates.

[2] = system: MDA-MB-231 breast cancer cells; assay: In vitro cytotoxicity (MTT assay), MDA-MB-231; type: cell-based; conditions: Homo sapiens, 48 h; MDA-MB-231, 2 days; read-out: IC50 (50% cell growth inhibitory concentration)
Description: as §1

[3] = system: PC3 prostate cancer cells; assay: In vitro cytotoxicity (MTT assay), PC3; type: cell-based; conditions: 48 h; PC3, 2 days; read-out: IC50 (50% cell growth inhibitory concentration)
Description: as §1

[4] = system: PARP; assay: Western blot for PARP cleavage in PC3 cells; type: cell-based; conditions: 20 μM
Description: The immunoblot analyses were performed to determine anti-cancer effects of our formulation at the molecular level. For these experiments, cancer cells were collected after 2 days of treatment with 10 μM and 20 μM CUR and 10 μM and 20 μM of F127250-CUR and processed for protein extraction and Western blotting using standard procedures. The cell lysates were separated by gel electrophoresis on polyacrylamide gels containing sodium dodecyl sulfate and then transferred to PVDF membranes. The membranes were blocked with Tris-buffered saline (TBS) containing 5% (w/v) skimmed milk. After washing thrice with Tween 20, the membranes were incubated overnight with primary antibody specific to Bcl-xL or PARP at 4° C. After washing, the membranes were incubated for 1 hr with secondary antibody (Promega, Madison Wis., USA). Protein bands were visualized using the Lumi-Light Detection Kit (Roche, Nutley, N.J., USA) and detected with a BioRad Gel Doc (BioRad, Hercules, Calif., USA).

[5] = system: PC3 cancer cells; assay: Ultrastructural changes in cancer cells by TEM; type: cell-based; conditions: 20 μM
Description: The uptake (internalization) pattern of nanoparticles was monitored by transmission electron microscopy (TEM) to further validate the cellular uptake capability of magnetic nanoparticles in cancer cells which was visually observed. For this experiment, aforementioned cells (1×10^7 cells per 150 mm plate) were incubated with 1 mg of particles in 20 ml media for 6 hrs. The treated cells were centrifuged and fixed with standard formaldehyde (4%)-glutaraldehyde (1%) fixative solution followed by OsO4 fixative solution. Next, cells were dehydrated in a graded series of acetone and embedded in Spurr resin. These cell-containing resin blocks were sectioned using an ultramicrotome and ultrathin sections (70-90 nm thickness) were transferred onto TEM grid (grid size: 97 μm) (Ted Pella Inc., Redding, Calif., USA). The grids were processed with uranyl acetate and lead acetate solutions to visualize cellular ultra structures.
The variation of ultrastructural changes in the cancer cells upon exposure to control (DMSO and F127250 formulation), 20 μM CUR or 20 μM F127250-CUR were observed by transmission electron microscopy (TEM) analysis.

[6] = system: Bcl-xL; assay: IHC of Bcl-xL expression in pancreatic tumor xenografts; type: in vivo, athymic nude mice; conditions: intra-tumoral at day 20
Description: (§2) FIG. 15. The effect of MNP-curcumin formulation on the expression of Bcl-xL and MCL-1 oncogenes in pancreatic tumor xenografts. Pancreatic tumor xenografts were generated in athymic nude mice by subcutaneous (sc) injection of HPAFII human pancreatic cancer cells. […] The presence of MNPs (iron) in tumors was determined by Prussian Blue staining. Original Magnifications 200×.
(§3) We then tested to effect of MNP-curcumin formulation on the expression of Bcl-xL and MCL-1 oncogenes in pancreatic tumor xenografts. Pancreatic tumor xenografts were generated in athymic nude mice by subcutaneous (sc) injection of HPAFII human pancreatic cancer cells.

[7] = system: MCL-1; assay: IHC of MCL-1 expression in pancreatic tumor xenografts; type: in vivo, athymic nude mice; conditions: intra-tumoral at day 20
Description: as §2, §3

COc1cc(/C=C/C(=O)CC(=O)/C=C/c2ccc(O)c(OC)c2)ccc1O [curcumin, (E,E)-1,7-bis(4-Hydroxy-3-methoxyphenyl)-1,6-heptadiene-3,5-dione]
IC50 [1]: 12.6 µM | IC50 [2]: 18.8 µM | IC50 [3]: 10.6 µM | PARP cleavage [4]: considerable cleavage | ultrastructural changes (vacuole formation) [5]: formation of endosomal-lysosomal-vacules | expression of Bcl-xL oncogene in tumor xenografts [6]: effectively inhibited the expression | expression of MCL-1 oncogene in tumor xenografts [7]: effectively inhibited the expression
